Source: publication PMC10046369, “Low-Affinity/High-Selectivity Dopamine Transport Inhibition Sufficient to Rescue Cognitive Functions in the Aging Rat” (Biomolecules, 2023)

Experiments:
Assay in all cases: biochemical
Design in all cases: KINOMEscan competition binding panel, per cent of control
Conditions in all cases: read-out: %Ctrl @ 2800nM
KIT(D816H) = KIT(D816H) (Homo sapiens, UniProt P10721, D816H)
Outline: (§1)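 Values are expressed as percent of control, calculated as ((test − positive control)/(negative control − positive control)) × 100, so lower numbers mean stronger hits. Binding was measured by KINOMEscan competition assay in a 450-kinase human panel including disease mutants, using the contractor's validated protocol.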

MLK3 = biological target: T1, MLK3 (Homo sapiens, UniProt Q16584)
T1 construct: gene MAP3K11
Outline: as §1

HASPIN = HASPIN (Homo sapiens, UniProt Q8TF76)
Outline: as §1

FGR = FGR (Homo sapiens, UniProt P09769)
Outline: as §1

[1] = biological target: T2, RSK4(Kin.Dom.1-N-terminal) (Homo sapiens, UniProt Q9UK32)
T2 construct: gene RPS6KA6; Kin.Dom.1-N-terminal
Outline: as §1

CAMK2D = CAMK2D (Homo sapiens, UniProt Q13557)
Outline: as §1

ACVRL1 = ACVRL1 (Homo sapiens, UniProt P37023)
Outline: as §1

EGFR(L858R) = EGFR(L858R) (Homo sapiens, UniProt P00533, L858R)
Outline: as §1

[2] = biological target: T3, RPS6KA5(Kin.Dom.1-N-terminal) (Homo sapiens, UniProt O75582)
T3 construct: Kin.Dom.1-N-terminal
Outline: as §1

FGFR3 = FGFR3 (Homo sapiens, UniProt P22607)
Outline: as §1

CAMK1D = CAMK1D (Homo sapiens, UniProt Q8IU85)
Sequence of CAMK1D (Q8IU85 whole entry): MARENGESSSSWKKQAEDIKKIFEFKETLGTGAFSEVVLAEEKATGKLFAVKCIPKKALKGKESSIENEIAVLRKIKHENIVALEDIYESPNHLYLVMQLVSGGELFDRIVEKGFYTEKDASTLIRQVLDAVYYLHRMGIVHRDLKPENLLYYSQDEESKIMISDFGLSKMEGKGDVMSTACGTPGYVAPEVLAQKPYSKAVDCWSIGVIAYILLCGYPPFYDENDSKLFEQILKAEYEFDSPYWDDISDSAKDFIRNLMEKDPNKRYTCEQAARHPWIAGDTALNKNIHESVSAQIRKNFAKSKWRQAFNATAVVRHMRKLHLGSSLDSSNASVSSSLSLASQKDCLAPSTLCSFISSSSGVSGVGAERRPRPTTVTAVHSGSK
Outline: as §1

SBK1 = SBK1 (Homo sapiens, UniProt Q52WX2)
Sequence of SBK1 (Q52WX2 whole entry): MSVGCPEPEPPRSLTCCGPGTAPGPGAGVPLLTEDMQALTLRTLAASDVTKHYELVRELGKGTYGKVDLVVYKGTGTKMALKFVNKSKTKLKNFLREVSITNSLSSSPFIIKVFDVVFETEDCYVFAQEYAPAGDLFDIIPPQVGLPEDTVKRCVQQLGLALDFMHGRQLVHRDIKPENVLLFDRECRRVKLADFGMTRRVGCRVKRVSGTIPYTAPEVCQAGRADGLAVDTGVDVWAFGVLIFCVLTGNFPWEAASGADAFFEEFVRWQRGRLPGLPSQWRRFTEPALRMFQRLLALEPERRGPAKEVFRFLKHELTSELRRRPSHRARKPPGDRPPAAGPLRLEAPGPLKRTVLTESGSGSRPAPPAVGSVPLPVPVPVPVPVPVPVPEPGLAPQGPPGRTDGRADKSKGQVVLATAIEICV
Outline: as §1

EGFR(T790M) = EGFR(T790M) (Homo sapiens, UniProt P00533, T790M)
Sequence of EGFR(T790M) (P00533 whole entry T790M): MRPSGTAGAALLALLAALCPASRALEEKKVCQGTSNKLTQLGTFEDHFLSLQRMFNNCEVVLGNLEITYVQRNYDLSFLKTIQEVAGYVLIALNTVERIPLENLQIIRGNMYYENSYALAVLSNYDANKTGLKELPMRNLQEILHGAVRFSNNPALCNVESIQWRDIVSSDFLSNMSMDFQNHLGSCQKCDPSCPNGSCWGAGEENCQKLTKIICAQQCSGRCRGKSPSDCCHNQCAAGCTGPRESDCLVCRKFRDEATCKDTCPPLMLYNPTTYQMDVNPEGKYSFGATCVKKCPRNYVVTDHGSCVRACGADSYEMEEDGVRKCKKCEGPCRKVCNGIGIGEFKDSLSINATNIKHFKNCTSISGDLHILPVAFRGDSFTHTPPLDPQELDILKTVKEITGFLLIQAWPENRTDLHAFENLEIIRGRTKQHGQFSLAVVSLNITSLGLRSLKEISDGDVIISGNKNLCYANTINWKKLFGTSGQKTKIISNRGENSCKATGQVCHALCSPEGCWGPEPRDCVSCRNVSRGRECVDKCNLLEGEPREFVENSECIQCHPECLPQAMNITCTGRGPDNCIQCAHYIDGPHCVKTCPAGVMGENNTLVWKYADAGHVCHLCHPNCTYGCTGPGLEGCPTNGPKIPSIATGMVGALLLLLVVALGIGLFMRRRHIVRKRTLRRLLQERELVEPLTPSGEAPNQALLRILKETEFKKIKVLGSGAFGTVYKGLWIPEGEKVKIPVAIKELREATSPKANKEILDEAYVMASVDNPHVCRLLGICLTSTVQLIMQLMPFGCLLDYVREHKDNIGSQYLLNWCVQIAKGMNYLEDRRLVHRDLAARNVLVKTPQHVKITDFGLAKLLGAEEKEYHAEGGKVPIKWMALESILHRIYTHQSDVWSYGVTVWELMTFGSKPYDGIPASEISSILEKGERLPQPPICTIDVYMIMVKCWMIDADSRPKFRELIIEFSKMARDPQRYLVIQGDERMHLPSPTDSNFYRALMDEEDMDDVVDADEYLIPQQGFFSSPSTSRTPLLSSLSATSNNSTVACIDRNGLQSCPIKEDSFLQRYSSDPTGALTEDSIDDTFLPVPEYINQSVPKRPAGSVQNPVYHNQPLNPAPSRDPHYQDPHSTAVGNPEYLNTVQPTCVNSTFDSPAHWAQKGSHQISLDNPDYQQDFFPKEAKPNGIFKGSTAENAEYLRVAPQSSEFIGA
Outline: as §1

MET(M1250T) = MET(M1250T) (Homo sapiens, UniProt P08581, M1250T)
Sequence of MET(M1250T) (P08581 whole entry M1250T): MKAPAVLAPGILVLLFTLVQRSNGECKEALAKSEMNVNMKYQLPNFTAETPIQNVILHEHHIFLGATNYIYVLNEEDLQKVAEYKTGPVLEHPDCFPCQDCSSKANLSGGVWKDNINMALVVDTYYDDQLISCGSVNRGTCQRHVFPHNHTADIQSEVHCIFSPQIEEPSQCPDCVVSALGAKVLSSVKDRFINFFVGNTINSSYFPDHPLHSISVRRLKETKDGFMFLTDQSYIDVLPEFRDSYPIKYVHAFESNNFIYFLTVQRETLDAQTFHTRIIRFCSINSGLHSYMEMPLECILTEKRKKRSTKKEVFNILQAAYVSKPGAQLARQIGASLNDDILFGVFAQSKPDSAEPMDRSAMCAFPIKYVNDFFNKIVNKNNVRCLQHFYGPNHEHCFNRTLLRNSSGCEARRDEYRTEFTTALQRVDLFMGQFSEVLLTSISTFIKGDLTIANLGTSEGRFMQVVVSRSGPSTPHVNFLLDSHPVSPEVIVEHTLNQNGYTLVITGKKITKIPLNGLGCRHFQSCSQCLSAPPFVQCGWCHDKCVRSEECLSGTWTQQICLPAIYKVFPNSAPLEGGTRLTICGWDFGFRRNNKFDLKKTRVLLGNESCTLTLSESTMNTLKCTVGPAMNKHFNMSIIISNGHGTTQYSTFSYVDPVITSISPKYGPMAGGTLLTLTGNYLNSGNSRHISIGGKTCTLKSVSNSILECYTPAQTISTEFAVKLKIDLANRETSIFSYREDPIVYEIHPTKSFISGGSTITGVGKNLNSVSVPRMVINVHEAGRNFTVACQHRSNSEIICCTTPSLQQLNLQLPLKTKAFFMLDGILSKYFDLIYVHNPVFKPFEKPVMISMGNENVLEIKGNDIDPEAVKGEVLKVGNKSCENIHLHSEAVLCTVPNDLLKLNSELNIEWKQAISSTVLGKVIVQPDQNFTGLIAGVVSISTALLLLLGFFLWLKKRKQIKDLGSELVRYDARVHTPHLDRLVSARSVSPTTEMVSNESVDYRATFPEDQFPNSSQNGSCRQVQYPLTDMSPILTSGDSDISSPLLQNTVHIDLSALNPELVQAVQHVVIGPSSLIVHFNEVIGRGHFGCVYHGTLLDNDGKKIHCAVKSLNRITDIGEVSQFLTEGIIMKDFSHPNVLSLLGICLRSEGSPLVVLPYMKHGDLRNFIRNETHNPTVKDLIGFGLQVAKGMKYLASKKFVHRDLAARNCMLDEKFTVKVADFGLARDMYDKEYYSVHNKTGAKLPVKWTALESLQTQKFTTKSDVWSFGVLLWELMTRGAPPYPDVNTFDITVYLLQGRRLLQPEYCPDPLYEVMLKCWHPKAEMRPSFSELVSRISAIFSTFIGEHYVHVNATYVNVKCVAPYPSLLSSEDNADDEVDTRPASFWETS
Outline: as §1

GSK3B = GSK3B (Homo sapiens, UniProt P49841)
Outline: as §1

INSRR = INSRR (Homo sapiens, UniProt P14616)
Sequence of INSRR (P14616 whole entry): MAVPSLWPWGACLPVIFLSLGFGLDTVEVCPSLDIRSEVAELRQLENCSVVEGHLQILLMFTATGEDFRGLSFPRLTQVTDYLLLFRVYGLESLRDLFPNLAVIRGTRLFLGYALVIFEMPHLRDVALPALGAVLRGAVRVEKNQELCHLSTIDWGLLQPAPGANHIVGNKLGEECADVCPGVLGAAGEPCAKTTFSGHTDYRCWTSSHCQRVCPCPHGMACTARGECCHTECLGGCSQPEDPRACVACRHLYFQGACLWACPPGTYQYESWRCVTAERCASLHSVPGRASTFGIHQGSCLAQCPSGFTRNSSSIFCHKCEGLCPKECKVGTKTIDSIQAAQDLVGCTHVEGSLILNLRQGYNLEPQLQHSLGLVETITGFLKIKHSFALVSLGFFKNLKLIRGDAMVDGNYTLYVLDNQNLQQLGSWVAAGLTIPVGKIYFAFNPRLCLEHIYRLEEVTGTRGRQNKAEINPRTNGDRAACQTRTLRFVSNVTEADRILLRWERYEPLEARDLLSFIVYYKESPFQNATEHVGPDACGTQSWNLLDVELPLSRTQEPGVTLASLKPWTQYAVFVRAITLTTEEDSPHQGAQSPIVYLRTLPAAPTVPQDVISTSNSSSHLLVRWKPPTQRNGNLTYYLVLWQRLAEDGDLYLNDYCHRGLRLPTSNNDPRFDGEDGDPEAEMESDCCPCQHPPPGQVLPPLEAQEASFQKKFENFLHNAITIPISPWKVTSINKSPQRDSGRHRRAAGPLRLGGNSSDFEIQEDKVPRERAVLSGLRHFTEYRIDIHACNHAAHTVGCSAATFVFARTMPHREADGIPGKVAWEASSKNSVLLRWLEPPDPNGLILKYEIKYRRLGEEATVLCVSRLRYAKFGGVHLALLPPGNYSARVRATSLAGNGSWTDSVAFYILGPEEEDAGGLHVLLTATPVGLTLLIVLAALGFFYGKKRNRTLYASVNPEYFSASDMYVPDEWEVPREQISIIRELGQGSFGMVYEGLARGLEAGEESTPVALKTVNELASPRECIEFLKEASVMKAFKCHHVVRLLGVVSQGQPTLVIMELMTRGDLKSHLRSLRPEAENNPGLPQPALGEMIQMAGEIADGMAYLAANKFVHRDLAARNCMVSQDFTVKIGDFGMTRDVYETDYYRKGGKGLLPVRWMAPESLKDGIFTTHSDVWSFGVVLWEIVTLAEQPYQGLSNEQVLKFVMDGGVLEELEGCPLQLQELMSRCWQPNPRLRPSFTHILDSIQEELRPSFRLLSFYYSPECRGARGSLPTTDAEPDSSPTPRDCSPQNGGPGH
Outline: as §1

[3] = biological target: T4, RPS6KA4(Kin.Dom.1-N-terminal) (Homo sapiens, UniProt O75676)
T4 construct: Kin.Dom.1-N-terminal
Outline: as §1

MET = MET (Homo sapiens, UniProt P08581)
Outline: as §1

ALK = ALK (Homo sapiens, UniProt Q9UM73)
Outline: as §1

DRAK2 = biological target: T5, DRAK2 (Homo sapiens, UniProt O94768)
T5 construct: gene STK17B
T5 sequence (O94768 whole entry): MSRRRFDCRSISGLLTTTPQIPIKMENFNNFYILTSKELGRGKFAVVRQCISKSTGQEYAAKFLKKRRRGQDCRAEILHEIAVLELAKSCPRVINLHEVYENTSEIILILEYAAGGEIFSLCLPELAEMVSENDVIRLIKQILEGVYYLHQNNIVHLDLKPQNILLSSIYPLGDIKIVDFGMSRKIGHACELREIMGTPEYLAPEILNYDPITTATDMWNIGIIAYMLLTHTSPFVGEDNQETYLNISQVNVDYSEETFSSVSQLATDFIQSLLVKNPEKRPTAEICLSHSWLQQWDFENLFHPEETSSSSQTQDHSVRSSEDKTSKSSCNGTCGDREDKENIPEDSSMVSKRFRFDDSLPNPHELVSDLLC
Outline: as §1

CDC2L2 = biological target: T6, CDC2L2 (Homo sapiens, UniProt Q9UQ88)
T6 construct: gene CDK11A
Outline: as §1

MERTK = MERTK (Homo sapiens, UniProt Q12866)
Outline: as §1

PRP4 = biological target: T7, PRP4 (Homo sapiens, UniProt Q13523)
T7 construct: gene PRPF4B
Outline: as §1

MLK1 = biological target: T8, MLK1 (Homo sapiens, UniProt P80192)
T8 construct: gene MAP3K9
Outline: as §1

CAMK2G = CAMK2G (Homo sapiens, UniProt Q13555)
Outline: as §1

ABL1-nonphosphorylated = biological target: T9, ABL1-nonphosphorylated (Homo sapiens, UniProt P00519)
T9 construct: nonphosphorylated
Outline: as §1

[O-][S@@+](Cc1cncs1)C(c1ccccc1)c1ccccc1 [S-CE-123, (S)-5-((Benzhydrylsulfinyl)Methyl)Thiazole]
remaining binding at 2.8 µM (KIT(D816H)): 100% | remaining binding at 2.8 µM (MLK3): 100% | remaining binding at 2.8 µM (HASPIN): 95% | remaining binding at 2.8 µM (FGR): 100% | remaining binding at 2.8 µM [1]: 100% | remaining binding at 2.8 µM (CAMK2D): 88% | remaining binding at 2.8 µM (ACVRL1): 84% | remaining binding at 2.8 µM (EGFR(L858R)): 92% | remaining binding at 2.8 µM [2]: 100% | remaining binding at 2.8 µM (FGFR3): 91% | remaining binding at 2.8 µM (CAMK1D): 96% | remaining binding at 2.8 µM (SBK1): 100% | remaining binding at 2.8 µM (EGFR(T790M)): 98% | remaining binding at 2.8 µM (MET(M1250T)): 99% | remaining binding at 2.8 µM (GSK3B): 92% | remaining binding at 2.8 µM (INSRR): 94% | remaining binding at 2.8 µM [3]: 100% | remaining binding at 2.8 µM (MET): 99% | remaining binding at 2.8 µM (ALK): 100% | remaining binding at 2.8 µM (DRAK2): 95% | remaining binding at 2.8 µM (CDC2L2): 98% | remaining binding at 2.8 µM (MERTK): 63% | remaining binding at 2.8 µM (PRP4): 92% | remaining binding at 2.8 µM (MLK1): 100% | remaining binding at 2.8 µM (CAMK2G): 95% | remaining binding at 2.8 µM (ABL1-nonphosphorylated): 93%
